# According to patent US20220242874A1, “CAMPTOTHECIN DERIVATIVES” (SUN PHARMA ADVANCED RESEARCH COMPANY LIMITED, priority 2019, published 2022):
# Counter-ions that a name gives are not always drawn. Like-named read-outs stand apart in the source and are kept apart here.
# Assays:
# [1] = Buffer stability (phosphate buffer, 37° C., HPLC); assay type: physicochemical
# Method: The representative compounds were first dissolved in a minimum quantity of DMSO in a volumetric flask and diluted up to the mark with diluent (water: acetonitrile 30:70). […] After the elapsed time, the buffer samples were diluted 4 times with acetonitrile and injected into an HPLC system. Quantification of representative compounds was done by HPLC.
# HPLC method: Chromatographic separation was achieved on a Hypersil BDS C18 (100×4.6 mm, 5 μ) column using 25 mM KH2PO4 buffer (pH 7 with TEA): acetonitrile, 90:10 v/v as mobile phase-A and 25 mM KH2PO4 buffer (pH 7 with TEA): acetonitrile 30:70 v/v as mobile phase-B. The gradient started with initially 5% B to 45% B in 10 mins followed by 80% B in 22 mins and held up to 25 mins and then returned to initial conditions at 26 mins and continued up to 30 mins. The injection volume was kept 10 μL and the flow rate was kept at 1.0 mL/min. The UV-Vis Detector was set at 220 nm, the column oven was set at 37° C. and the sample cooler was set at […]. Total chromatographic runtime was 30 min.
# NCI H187 cells = assay: In-vitro cancer cell growth inhibition assay (MTT); assay type: cell-based; settings: Homo sapiens, NCI-H187, read-out: IC50 (nM) NCI H187
# Method: The compounds of the present invention were evaluated for their ability to inhibit the growth of various cell line models of small cell lung cancer (SCLC), colon cancer, pancreatic cancer and triple negative breast cancer (TNBC) in-vitro. Details of the cell lines and their respective complete growth media are described in Table 3. The growth inhibition assay was carried out as described below. Briefly, cells in complete growth media were seeded in 96-well plates at appropriate cell densities (seeding density details described in Table 3) and incubated at 37° C., 5% CO2 (3-4 hours for NCI-H526, NCI-H69, NCI-H187 and overnight for the rest of the cells). Serial dilutions of test compound in DMSO were added to the cells while maintaining the final DMSO concentration of 0.4%-0.5% in the well. […] Subsequently, MTT (final concentration 0.5 mg/mL in media) was incubated with the cells at 37° C., 5% CO2 for 4-5 hours. The formazan crystals were dissolved overnight at 37° C., 5% CO2 using 100 μL extractant (10% SDS in 0.01N HCl) and quantified using absorbance at 570 nm with reference wavelength 630 nm. Growth inhibition was represented as percent decrease in absorbance compared to vehicle treated cells.
# NCI H69 cells = assay: In-vitro cancer cell growth inhibition assay (MTT); assay type: cell-based; settings: Homo sapiens, NCI-H69, 144 h, read-out: IC50 (nM) NCI H69
# Method: (§1) The compounds of the present invention were evaluated for their ability to inhibit the growth of various cell line models of small cell lung cancer (SCLC), colon cancer, pancreatic cancer and triple negative breast cancer (TNBC) in-vitro. Details of the cell lines and their respective complete growth media are described in Table 3. The growth inhibition assay was carried out as described below. Briefly, cells in complete growth media were seeded in 96-well plates at appropriate cell densities (seeding density details described in Table 3) and incubated at 37° C., 5% CO2 (3-4 hours for NCI-H526, NCI-H69, NCI-H187 and overnight for the rest of the cells). Serial dilutions of test compound in DMSO were added to the cells while maintaining the final DMSO concentration of 0.4%-0.5% in the well. Plates were incubated for 96-144 h (the exact duration for each assay is described in Table 3) at 37° C., 5% CO2. Subsequently, MTT (final concentration 0.5 mg/mL in media) was incubated with the cells at 37° C., 5% CO2 for 4-5 hours. The formazan crystals were dissolved overnight at 37° C., 5% CO2 using 100 μL extractant (10% SDS in 0.01N HCl) and quantified using absorbance at 570 nm with reference wavelength 630 nm. Growth inhibition was represented as percent decrease in absorbance compared to vehicle treated cells.
# NCI H526 cells = assay: In-vitro cancer cell growth inhibition assay (MTT); assay type: cell-based; settings: Homo sapiens, NCI-H526, 96-144 h, read-out: IC50 (nM) NCI H526
# Method: as §1
# HT-29 cells = assay: In-vitro cancer cell growth inhibition assay (MTT); assay type: cell-based; settings: Homo sapiens, HT-29, 96 h, read-out: IC50 (nM) HT-29
# Method: as §1
# PANC-1 cells = assay: In-vitro cancer cell growth inhibition assay (MTT); assay type: cell-based; settings: Homo sapiens, PANC-1, 96 h, read-out: IC50 (nM) PANC-1
# Method: as §1
# MDA-MB-231 cells = assay: In-vitro cancer cell growth inhibition assay (MTT); assay type: cell-based; settings: Homo sapiens, MDA-MB-231, 96 h, read-out: IC50 (nM) MDA-MB-231
# Method: as §1
# MX-1 cells = assay: In-vitro cancer cell growth inhibition assay (MTT); assay type: cell-based; settings: Homo sapiens, MX1, 144 h, read-out: IC50 (nM) MX-1
# Method: as §1
# MDA-MB-468 cells = assay: In-vitro cancer cell growth inhibition assay (MTT); assay type: cell-based; settings: Homo sapiens, MDA-MB-468, 96 h, read-out: IC50 (nM) MDA-MB-468
# Method: as §1
# [2] = mouse, 2000 ng/mL, pH 5.5
# Method: Aliquot of 100 μL were taken from stability samples in pre-labelled micro-centrifuge tubes. 5 μL of cetirizine working internal standard (5 μg/mL) was added to each tube and vortexed well. 1 mL acetonitrile was added to each tube and vortexed well and then centrifuge at 10000 RPM for 5 min at room temperature. The supernatant was collected in ria vials and evaporated to dryness under nitrogen stream. The samples were reconstituted in 1 mL of 0.1% formic acid in water: acetonitrile 30:70 v/v. The prepared samples were analyzed using LC-MS/MS method. Quantification was done against SN-38 standard, prepared at 2000 ng/mL concentration. SN-38 standard prepared by spiking 5 μL of SN-38 working standard to 95 μL of blank mice tumor homogenate to achieve 2000 ng/mL concentration and vortexed well and processed as described.
# LC-MS/MS Method: Chromatographic separation was achieved on Inertsil C8-3 (50×4.6 mm, 5 μ) with a flow rate of 250 μL/min and an injection volume of 10 μL. The sample cooler was maintained at 10° C. The column oven temperature was set to 40° C. The mobile phase consisted of 0.1% formic acid in Milli Q water and acetonitrile in the ratio of 30:70 v/v, respectively. […] The overall chromatographic run time was 4.0 minutes.
# Detection was performed by tandem mass spectrometry (TSQ Quantum, Discovery MAX, Thermo Electron Corporation) and peak areas were integrated using LCquan software version 2.9 QF1.
# 0 hr standard area was considered as 100% for calculation.
SMILES,"% of Unconverted Compounds of Formula I ([1]; pH 4.7, 0 hr, 200 μg/ml)","% of Unconverted Compounds of Formula I ([1]; pH 4.7, 2 hr, 200 μg/ml)","% of Unconverted Compounds of Formula I ([1]; pH 4.7, 4 hr, 200 μg/ml)","% of Unconverted Compounds of Formula I ([1]; pH 4.7, 6 hr, 200 μg/ml)","% of Unconverted Compounds of Formula I ([1]; pH 4.7, 8 hr, 200 μg/ml)","% of Unconverted Compounds of Formula I ([1]; pH 6.0, 0 hr, 200 μg/ml)","% of Unconverted Compounds of Formula I ([1]; pH 6.0, 2 hr, 200 μg/ml)","% of Unconverted Compounds of Formula I ([1]; pH 6.0, 4 hr, 200 μg/ml)","% of Unconverted Compounds of Formula I ([1]; pH 6.0, 6 hr, 200 μg/ml)","% of Unconverted Compounds of Formula I ([1]; pH 6.0, 8 hr, 200 μg/ml)","% of Unconverted Compounds of Formula I ([1]; pH 7.4, 0 hr, 200 μg/ml)","% of Unconverted Compounds of Formula I ([1]; pH 7.4, 2 hr, 200 μg/ml)","% of Unconverted Compounds of Formula I ([1]; pH 7.4, 4 hr, 200 μg/ml)","% of Unconverted Compounds of Formula I ([1]; pH 7.4, 6 hr, 200 μg/ml)","% of Unconverted Compounds of Formula I ([1]; pH 7.4, 8 hr, 200 μg/ml)",IC50 (NCI H187 cells),IC50 (NCI H69 cells),IC50 (HT-29 cells),IC50 (PANC-1 cells),further results
"CCc1c2c(nc3ccc(O)cc13)-c1cc3c(c(=O)n1C2)COC(=O)[C@@]3(CC)OC(=O)CCCSSCCCC(=O)Nc1ccc(N2CCN(C)CC2)cc1.Cl [Compound I.1, 4-[3-(4-(4-Methylpiperazin-1-yl)phenylcarbamoyl)propyldisulfanyl][(4S)-4,11-diethyl-3,4,12,14-tetrahydro-9-hydroxy-1H-pyrano[3′,4′:6,7]indolizino[1,2-b]quinoline-3,14-(4H,12H)dione-4-yl]butyrate hydrochloride]",100%,96.3%,97.4%,100.0%,100%,100%,95.4%,97.1%,97.2%,97.1%,100%,97.7%,95.5%,100.0%,100%,–,–,–,–,–
"CCc1c2c(nc3ccc(O)cc13)-c1cc3c(c(=O)n1C2)COC(=O)[C@@]3(CC)OC(=O)OCCSSCCOC(=O)N(C)c1ccc(N2CCN(C)CC2)cc1.Cl [Compound I.3, 2-(2-{N-Methyl-N-[4-(4-methylpiperazin-1-yl)phenyl]carbamoyloxy}ethyldisulfanyl)ethyl [(4S)-4,11-diethyl-3,4,12,14-tetrahydro-9-hydroxy-1H-pyrano[3′,4′:6,7]indolizino[1,2-b]quinoline-3,14-(4H,12H)dione-4-yl] carbonate hydrochloride]",100%,100%,100%,100%,100%,100%,93.8%,97.8%,98.2%,100%,100%,100%,100%,100%,100%,0.68 nM,1.2 nM,43.7 nM,862 nM,IC50 (NCI H526 cells): 1.91 nM
"CCc1c2c(nc3ccc(O)cc13)-c1cc3c(c(=O)n1C2)COC(=O)[C@@]3(CC)OC(=O)OCCSSCCNC(=O)c1ccc(CN2CCN(C)CC2)cc1 [Compound I.6, 2-(2-{4-[4-Methylpiperazin-1-ylmethyl]benzoylamino}ethyldisulfanyl)ethyl [(4S)-4,11-diethyl-3,4,12,14-tetrahydro-9-hydroxy-1H-pyrano[3′,4′:6,7]indolizino[1,2-b]quinoline-3,14-(4H,12H)dione-4-yl] carbonate dihydrochloride]",–,–,–,–,–,–,–,–,–,–,–,–,–,–,–,0.23 nM,2.3 nM,15.7 nM,1140 nM,"% of Unconverted Compounds of Formula I ([1]; pH 4.7, 0 hr, 100 μg/ml (footnote *)): 100%; % of Unconverted Compounds of Formula I ([1]; pH 4.7, 2 hr, 100 μg/ml (footnote *)): 96.8%; % of Unconverted Compounds of Formula I ([1]; pH 4.7, 4 hr, 100 μg/ml (footnote *)): 89.8%; % of Unconverted Compounds of Formula I ([1]; pH 4.7, 8 hr, 100 μg/ml (footnote *)): 89.0%; % of Unconverted Compounds of Formula I ([1]; pH 6.0, 0 hr, 100 μg/ml (footnote *)): 100%; % of Unconverted Compounds of Formula I ([1]; pH 6.0, 2 hr, 100 μg/ml (footnote *)): 89.9%; % of Unconverted Compounds of Formula I ([1]; pH 6.0, 4 hr, 100 μg/ml (footnote *)): 89.4%; % of Unconverted Compounds of Formula I ([1]; pH 6.0, 6 hr, 100 μg/ml (footnote *)): 82.5%; % of Unconverted Compounds of Formula I ([1]; pH 6.0, 8 hr, 100 μg/ml (footnote *)): 84.3%; % of Unconverted Compounds of Formula I ([1]; pH 7.4, 0 hr, 100 μg/ml (footnote *)): 100%; % of Unconverted Compounds of Formula I ([1]; pH 7.4, 2 hr, 100 μg/ml (footnote *)): 90.7%; % of Unconverted Compounds of Formula I ([1]; pH 7.4, 4 hr, 100 μg/ml (footnote *)): 81.4%; % of Unconverted Compounds of Formula I ([1]; pH 7.4, 6 hr, 100 μg/ml (footnote *)): 83.7%; % of Unconverted Compounds of Formula I ([1]; pH 7.4, 8 hr, 100 μg/ml (footnote *)): 84.6%; IC50 (MDA-MB-231 cells): 158 nM; IC50 (MX-1 cells): 5.4 nM; IC50 (MDA-MB-468 cells): 13.7 nM"
"CCc1c2c(nc3ccc(OC(=O)N4CCC(N5CCCCC5)CC4)cc13)-c1cc3c(c(=O)n1C2)COC(=O)[C@]3(O)CC [Irinotecan, irinotecan hydrochloride]",–,–,–,–,–,–,–,–,–,–,–,–,–,–,–,–,–,–,–,% Remaining in tumor lysate ([2]; 0 h): 100.0%; Concentration of SN-38 formed from the substance ([2]; 0 h): 0.0 ng/mL; % Remaining in tumor lysate ([2]; 1 h): 110.5%; Concentration of SN-38 formed from the substance ([2]; 1 hr): 9.4 ng/mL; % Remaining in tumor lysate ([2]; 2 h): 95.4%; Concentration of SN-38 formed from the substance ([2]; 2 hr): 17.5 ng/mL; % Remaining in tumor lysate ([2]; 4 h): 93.1%; Concentration of SN-38 formed from the substance ([2]; 4 hr): 22.8 ng/mL; % Remaining in tumor lysate ([2]; 6 h): 82.3%; Concentration of SN-38 formed from the substance ([2]; 6 hr): 25.5 ng/mL; Concentration of SN-38 formed from the substance ([2]; 8 h): 29.6 ng/mL
